Reference: patent US11142527B2, “Dihydropyrimidine compounds and uses thereof in medicine” (SUNSHINE LAKE PHARMA CO., LTD., priority 2017, dated 2021)

System: HBV
Assay: Test of anti HBV activity in vitro (viral DNA by qPCR)
Assay type: cell-based
Settings: Hepatitis B virus; HepG2.2.15 cells, viral DNA in cell culture supernatant by qPCR; read-out: EC50 values of the compound of the invention on viral replication
Method: Test 1: Test Method of Calculating Anti HBV EC50
HBV Cell Line and Culture Conditions
HepG2.2.15 (SELLS, PNAS, 1987 and SELLS, JV, 1988) chromosomes have an integrated complete HBV genome, and stably express viral RNA and viral protein. HepG2.2.15 cells can secrete mature HBV particles, HBsAg and HBeAg, to medium. HepG2.2.15 cells were cultured in DMEM containing 10% fetal bovine serum, 100 U/mL penicillin, 100 U/mL streptomycin, 1% non essential amino acid, 1 mM sodium pyruvate and 300 μg/mL G418.
Viral particles DNA secreted from HepG2.2.15 cells can be quantified by qPCR, and the effect of the compound on viral replication can be detected.
Test of Anti HBV Activity In Vitro
8000 HepG 2.2.15 cells per well were seeded into a 96-well plate, the plate was cultured at 37° C. and 5% CO2 for 3 days till the cells grew to full wells. Old liquid medium can be removed and replaced with new medium (200 μL) on day 0.
Formulating the compound and treating the cells in the experiment of anti virus: the compound was dissolved in DMSO to a concentration of 30 mM, and then the compound solution was diluted with DMSO to a concentration of 800 μM, and then eight dilutions at 4 fold were performed, the highest concentration is 800 μM. The serial diluted compound was added to the above plate at 1 μL per well, the highest final concentration in the experiment is 4 μM (200 fold dilution). TDF (tenofovir dipiroxil fumarate, Selleck, Cat S1400) has a highest concentration of 4 μM as a positive control. 1 μL of DMSO was added in to the […] at a final concentration of 0.5%, TDF was added in to the […] at a final concentration of 1 μM.
Detection of Viral Genomic DNA by aPCR
Primer: HBV-For-202, […]; HBV-Rev-315, […]. Copies of virus can be calculated using a standard curve plotted by using plasmid containing HBV genome and using SYBR Premix Ex Taq II—Takara DRR081S kit and 1 μL cell culture supernatant as a template. EC50 values of the compound on viral replication were calculated by a four parametric nonlinear regression model using Graphpad Prism 5 software to manage concentration—viral copy number.

First: COC(=O)C1=C(CN2CCN3C(=O)N(c4ccc(Oc5ccc(C(=O)O)cn5)cc4)C[C@@H]3C2)NC(c2nccs2)=N[C@H]1c1ccc(F)cc1Cl [Example 78, 6-(4-((S)-7-(((R)-6-(2-chloro-4-fluorophenyl)-5-(methoxycarbonyl)-2-(thiazol-2-yl)-3,6-dihydropyrimidin-4-yl)methyl)-3-oxohexahydroimidazo[1,5-a]pyrazin-2(3H)-yl)phenoxy)nicotinic acid]
Second: COC(=O)C1=C(CN2CCN3C(=O)N(c4ccc(-c5ccc(C(=O)O)cc5F)cc4)C[C@@H]3C2)NC(c2nccs2)=N[C@H]1c1ccc(F)cc1Cl [Example 115, 4′-((S)-7-(((R)-6-(2-chloro-4-fluorophenyl)-5-(methoxycarbonyl)-2-(thiazol-2-yl)-3,6-dihydropyrimidin-4-yl)methyl)-3-oxohexahydroimidazo[1,5-a]pyrazin-2(3H)-yl)-2-fluoro-[1,1′-biphenyl]-4-carboxylic acid]
The EC50 of the first is 2.3-fold higher: 38.7 nM for the first, 17.2 nM for the second. The second is the more potent here.

Going from `COC(=O)C1=C(CN2CCN3C(=O)N(c4ccc(Oc5ccc(CCC(=O)O)cc5F)cc4F)C[C@@H]3C2)NC(c2nccs2)=N[C@H]1c1ccc(F)cc1Cl` [Example 101, 3-(4-(4-((S)-7-(((R)-6-(2-chloro-4-fluorophenyl)-5-(methoxycarbonyl)-2-(thiazol-2-yl)-3,6-dihydropyrimidin-4-yl)methyl)-3-oxohexahydroimidazo[1,5-a]pyrazin-2(3H)-yl)-3-fluorophenoxy)-3-fluorophenyl)propanoic acid] to `COC(=O)C1=C(CN2CCN3C(=O)N(c4ccc(-c5ccc(C(=O)O)c(F)c5)cc4F)C[C@@H]3C2)NC(c2nccs2)=N[C@H]1c1ccc(F)cc1Cl` [Example 121, 4′-((S)-7-(((R)-6-(2-chloro-4-fluorophenyl)-5-(methoxycarbonyl)-2-(thiazol-2-yl)-3,6-dihydropyrimidin-4-yl)methyl)-3-oxohexahydroimidazo[1,5-a]pyrazin-2(3H)-yl)-3,3′-difluoro-[1,1′-biphenyl]-4-carboxylic acid], the EC50 rises from 14.8 nM to 36.4 nM (2.5-fold). The first is the more potent here.

First: COC(=O)C1=C(CN2CCN3C(=O)N(c4ccc(-c5cnc(C)[nH]5)cc4)C[C@@H]3C2)NC(c2nccs2)=N[C@H]1c1ccc(F)cc1Cl [Example 107, (R)-methyl 4-(2-chloro-4-fluorophenyl)-6-(((S)-2-(4-(2-methyl-1H-imidazol-5-yl)phenyl)-3-oxohexahydroimidazo[1,5-a]pyrazin-7(1H)-yl)methyl)-2-(thiazol-2-yl)-1,4-dihydropyrimidine-5-carboxylate]
Second: CCc1c[nH]c(-c2ccc(N3C[C@@H]4CN(CC5=C(C(=O)OC)[C@H](c6ccc(F)cc6Cl)N=C(c6nccs6)N5)CCN4C3=O)cc2)n1 [Example 109, (R)-methyl 4-(2-chloro-4-fluorophenyl)-6-(((S)-2-(4-(4-ethyl-1H-imidazol-2-yl)phenyl)-3-oxohexahydroimidazo[1,5-a]pyrazin-7(1H)-yl)methyl)-2-(thiazol-2-yl)-1,4-dihydropyrimidine-5-carboxylate]
The EC50 of the first is 1.9-fold lower: 6.5 nM for the first, 12.4 nM for the second.

First: COC(=O)C1=C(CN2CCN3C(=O)N(c4ccc5[nH]c(C6CCCN6C)nc5c4)C[C@@H]3C2)NC(c2nccs2)=N[C@H]1c1ccc(F)cc1Cl (stereo partly drawn) [Example 108, (4R)-methyl 4-(2-chloro-4-fluorophenyl)-6-(((8aS)-2-(2-(1-methylpyrrolidin-2-yl)-1H-benzo[d]imidazol-5-yl)-3-oxohexahydroimidazo[1,5-a]pyrazin-7(1H)-yl)methyl)-2-(thiazol-2-yl)-1,4-dihydropyrimidine-5-carboxylate]
Second: COC(=O)C1=C(CN2CCN3C(=O)N(c4ccc(-c5nc(C6CCCCC6)c[nH]5)cc4)C[C@@H]3C2)NC(c2nccs2)=N[C@H]1c1ccc(F)cc1Cl [Example 110, (R)-methyl 4-(2-chloro-4-fluorophenyl)-6-(((S)-2-(4-(5-cyclohexyl-1H-imidazol-2-yl)phenyl)-3-oxohexahydroimidazo[1,5-a]pyrazin-7(1H)-yl)methyl)-2-(thiazol-2-yl)-1,4-dihydropyrimidine-5-carboxylate]
The EC50 of the first is 4.5-fold lower: 6.8 nM for the first, 30.5 nM for the second. The first is the more potent here.

`COC(=O)C1=C(CN2CCN3C(=O)N(c4ccc(-c5ccc(C(=O)O)cc5)cc4F)C[C@@H]3C2)NC(c2nccs2)=N[C@H]1c1ccc(F)cc1Cl` [Example 113, 4′-((S)-7-(((R)-6-(2-chloro-4-fluorophenyl)-5-(methoxycarbonyl)-2-(thiazol-2-yl)-3,6-dihydropyrimidin-4-yl)methyl)-3-oxohexahydroimidazo[1,5-a]pyrazin-2(3H)-yl)-3′-fluoro-[1,1′-biphenyl]-4-carboxylic acid] and `COC(=O)C1=C(CN2CCN3C(=O)N(c4ccc(-c5ccc(C(=O)O)cc5F)cc4F)C[C@@H]3C2)NC(c2nccs2)=N[C@H]1c1ccc(F)cc1Cl` [Example 120] are within 1.5-fold of each other in EC50: 23.9 nM for the first, 25.5 nM for the second.

First: COC(=O)C1=C(CN2CCN3C(=O)N(c4ccc(-c5ccc(C(=O)O)cc5F)nc4)C[C@@H]3C2)NC(c2nccs2)=N[C@H]1c1ccc(F)cc1Cl [Example 124, 4-(5-((S)-7-(((R)-6-(2-chloro-4-fluorophenyl)-5-(methoxycarbonyl)-2-(thiazol-2-yl)-3,6-dihydropyrimidin-4-yl)methyl)-3-oxohexahydroimidazo[1,5-a]pyrazin-2(3H)-yl)pyridin-2-yl)-3-fluorobenzoic acid]
Second: COC(=O)C1=C(CN2CCN3C(=O)N(c4nc(-c5ccc(CC(=O)O)cc5)cs4)C[C@@H]3C2)NC(c2nccs2)=N[C@H]1c1ccc(F)cc1Cl [Example 134, 2-(4-(2-((S)-7-(((R)-6-(2-chloro-4-fluorophenyl)-5-(methoxycarbonyl)-2-(thiazol-2-yl)-3,6-dihydropyrimidin-4-yl)methyl)-3-oxohexahydroimidazo[1,5-a]pyrazin-2(3H)-yl)thiazol-4-yl)phenyl)acetic acid]
The EC50 of the first is 12-fold higher: 47.4 nM for the first, 4 nM for the second.

First: COC(=O)C1=C(CN2CCN3C(=O)N(c4cc(F)cc(N5CCO[C@H](CCC(=O)O)C5)c4)C[C@@H]3C2)NC(c2nccs2)=N[C@H]1c1ccc(F)cc1Cl [Example 131, 3-((R)-4-(3-((S)-7-(((R)-6-(2-chloro-4-fluorophenyl)-5-(methoxycarbonyl)-2-(thiazol-2-yl)-3,6-dihydropyrimidin-4-yl)methyl)-3-oxohexahydroimidazo[1,5-a]pyrazin-2(3H)-yl)5-fluorophenyl)morpholin-2-yl)propanoic acid]
Second: COC(=O)C1=C(CN2CCN3C(=O)N(c4nc(-c5cccc(CCC(=O)O)c5)cs4)C[C@@H]3C2)NC(c2nccs2)=N[C@H]1c1ccc(F)cc1Cl [Example 140, 3-(3-(2-((S)-7-(((R)-6-(2-chloro-4-fluorophenyl)-5-(methoxycarbonyl)-2-(thiazol-2-yl)-3,6-dihydropyrimidin-4-yl)methyl)-3-oxohexahydroimidazo[1,5-a]pyrazin-2(3H)-yl)thiazol-4-yl)phenyl)propanoic acid]
The EC50 of the first is 2.1-fold lower: 8.6 nM for the first, 18.3 nM for the second.

System: not listed separately
Assay: Cytotoxicity test with CellTiter Glo
Assay type: cell-based
Settings: human, HepG2.2.15 cells, highest concentration 150 μM, read-out: CC50 values of the compounds of the invention
Method: Test 2: Cytotoxicity and Selectivity Index
Methods of Testing Cytotoxicity and Selectivity Index
The serial diluted compound was added to a 384 wells plate at 50 μL HepG2.2.15 cell per well (3000 cells per well), the highest final concentration in the experiment is 150 μM (200 fold dilution). The plate was cultured at 37° C. in an incubator with CO2 for 4 days, and cytotoxicity of the compound was detected using CellTiter Glo agent.
The cytotoxicity of the compound was calculated using the following formulate, cytotoxicity (%)=100−(detection value/mean of DMSO control wells values×100) CC50 values were calculated by a four parametric nonlinear regression model using Graphpad Prism 5 software to manage concentration−cytotoxicity (%).

`COC(=O)C1=C(CN2CCN3C(=O)N(c4ccc(Oc5ccc(C(=O)NCc6ccccc6Cl)cc5)cc4)C[C@@H]3C2)NC(c2nccs2)=N[C@H]1c1ccc(F)cc1Cl` [Example 62, (R)-methyl 4-(2-chloro-4-fluorophenyl)-6-(((S)-2-(4-(4-((2-chlorobenzyl)carbamoyl)phenoxy)phenyl)-3-oxohexahydroimidazo[1,5-a]pyrazin-7(1H)-yl)methyl)-2-(thiazol-2-yl)-1,4-dihydropyrimidine-5-carboxylate] and `COC(=O)C1=C(CN2CCN3C(=O)N(c4ccc(Oc5ccc(C(=O)N6CCOC[C@@H]6CCC(=O)O)cc5)cc4)C[C@@H]3C2)NC(c2nccs2)=N[C@H]1c1ccc(F)cc1Cl` [Example 73, 3-((S)-4-(4-(4-((S)-7-(((R)-6-(2-chloro-4-fluorophenyl)-5-(methoxycarbonyl)-2-(thiazol-2-yl)-3,6-dihydropyrimidin-4-yl)methyl)-3-oxohexahydroimidazo[1,5-a]pyrazin-2(3H)-yl)phenoxy)benzoyl)morpholin-3-yl)propanoic acid] cannot be ordered by CC50 at 4 days: > 150000 nM for the first, > 150000 nM for the second.
